Source: publication PMC7497249, “Synthesis and Biological Screening of New Lawson Derivatives as Selective Substrate‐Based Inhibitors of Cytochrome bo3 Ubiquinol Oxidase from Escherichia coli” (Chemmedchem, 2020)
Several values for one entry are separate records, joined by “and”; a condition that tells them apart may be missing. Equal values may be shown once. Read-outs that look alike come from different tables or passages of the source.

Assays:
[1] = target: T1, purified E. coli cyt bd-I oxidase (Escherichia coli, UniProt P0ABJ9); test: biochemical; details: for remaining activity at 250 µM: read-out: Residual activity for oxygen reduction, Cytochrome bd-I
T1 construct: made in house; host or cells: E. coli C43(DE3) Δbo3 with plasmid pet17b-cydABX-StrepII
Experimental: (§1) The inhibitory effect of a set of HNQs was screened in micromolar range to identify selective cyt bo3 and cyt bd‐I inhibitors. Oxygen reduction was measured via a Clark‐type electrode. Turnover rates of cyt bo3 and bd‐I experiments are presented as relative activities (Figure 1). For experimental overview and further information see Supporting Information (Figures S38–S40), Tables S2–3). Activity of cyt bo 3 was strongly (>50 %) reduced by HNQ‐1, ‐2, ‐6, ‐7 and ‐12. […]. Overall, the E. coli bd‐I‐type oxidase was less sensitive to the majority of examined compounds. […]; HNQ‐12: 56 %).
(§2) Figure 1 Screening of the inhibition potentials of tested hydroxynaphthoquinones (HNQ) on the oxidase reduction activity of purified E. coli cytbo3 (white) and bd‐I (light gray) oxidase. Inhibition assay using HNQs at 250 μM in the presence of 200 μM ubiquinone‐1 and 5 mM dithiothreitol. Oxygen reduction activity was calculated from oxygen consumption rates at 30 nM enzyme concentration at RT for each experiment. 100 % activity=adding corresponding volume of EtOH. KCN (20 μM) and HQNO (250 μM) represent positive inhibition controls for cyt bo3. The data are mean values of three independent experiments ± standard deviation.
(§3) Oxygen reductase activity measurements: Oxygen reductase activity was measured as oxygen consumption rate of purified protein by an OX‐MR Clark‐type oxygen electrode linked to a PA 2000 picoammeter and to an ADC‐216 for analog to digital conversion. Recording of data with SensorTrace Basic 2.1 software (all Unisense, Denmark).
(§4) Measurements were performed at room temperature in stirred 2 mL – glass vials with a total reaction volume of 600 μL. Oxygen consumption was initiated by adding 30 nM of the respective enzyme to the equilibrated mixture containing 20 mM NaPi (pH 8.0), 50 mM NaCl, 0.02 % DDM, 5 mM dithiothreitol (DTT) and 200 μM Ubiquinone‐1 (2,3‐dimethoxy‐5‐methyl‐6‐(3‐methylbut‐2‐en‐1‐yl)‐1,4‐benzoquinone). Equilibration was done for 10 min prior to enzyme addition. Inhibition experiments with 250 μM of respective HNQ from 20 mM stock solution in EtOH before equilibration. Data analysis and visualization with Origin Lab Pro 9.5 (Additive GmbH, Germany). HQNO (2‐heptyl‐4‐quinolinol 1‐oxide) was purchased from biomol GmbH, Hamburg. Determination of apparent k i (k i ^app) was performed under the same conditions but with a range of inhibitor concentrations from 1000 μM to 0.2 μM. The k i ^app value was adopted as the EC50 from the sigmoidal DoseResp Fit. Further information can be found in Figures S40–S43.

[2] = target: T2, purified E. coli cyt bo3 oxidase (Escherichia coli, UniProt P0ABI8); test: biochemical; details: for inhibition at 250 µM: read-out: inhibition (reduction) of cyt bo3 activity; for remaining activity at 250 µM: read-out: Residual activity for oxygen reduction, Cytochrome bo3
T2 construct: made in house; host or cells: E. coli strain GO195 with plasmid pIRHisA
Experimental: as §1, §2, §3, §4

[3] = absorbance-based thermodynamic equilibrium solubility assay; format: physicochemical; details: buffer 20 mM NaPi, 50 mM NaCl, 0.02 % DDM, pH 8.0, room temperature; for solubility at 1 day: sodium phosphate buffer
Experimental: To meet the requirements for further functional investigations, the solubilities of the HNQ compounds were determined by an absorbance‐based thermodynamic equilibrium solubility assay.36 As shown in Scheme 3a, plotting absorbance over concentration at the wavelength of the maximum peak of the absorbance spectra, (HNQ‐2 at λ=274 nm), provides a saturation point at 1.26±0.03 mM (solubility graphs for all HNQ compounds are shown in Figure S37). […]. Therefore, all twelve HNQ compounds are feasible for further functional studies.
Solubility assay: Thermodynamic equilibrium solubility of HNQ compounds was determined in sodium phosphate buffer containing 20 mM NaPi, 50 mM NaCl, 0.02 % DDM at pH 8.0. All steps were performed at room temperature following the method by Bharate and Vishwakarma.36 Measurements were done in triplicates. HNQ compounds were dissolved in a particular amount of methanol or CH2Cl2 (HNQ‐9) needed for complete dissolving. Required volumes of these methanol stock solutions were transferred in 1.5 mL reaction tubes (0.1–600 μL dependent on compound and stock concentration) to get a concentration row. After 24–48 h complete evaporation of methanol or CH2Cl2 was accomplished. Remaining solid compounds were dissolved by adding 100/200 μL of sodium phosphate buffer to the reaction tubes, which were shaken at 200 rpm for one day for equilibration. Next day, centrifugation of the reaction tubes for 30 min at 13 000 rpm at 11000 g. 50/100 μL of supernatant were pipetted into a 96‐well plate (UV‐Star, Greiner), and absorbance spectra were recorded for each well with a TECAN Spark plate reader (Tecan Trading AG, Switzerland). By plotting absorbance at λ max against concentration [mM] of the compound, saturation point of graph indicates the thermodynamic equilibrium solubility. Data analysis and visualization with SigmaPlot Pro 12.5 (Systat Software GmbH, Germany).

[4] = target: T3, cyt bo3 (Escherichia coli, UniProt P0ABI8); details: steady state kinetic experiments; read-out: kiapp; cited from earlier work
T3 construct: made in house; host or cells: E. coli strain GO195 with plasmid pIRHisA

[5] = inhibitor 250 µM, 200 μM ubiquinone-1, 5 mM DTT, 30 nM enzyme, RT, mean of three ± SD, 100 % = EtOH
[6] = HNQ 250 μM, 200 μM ubiquinone-1
[7] = aqueous with cosolvent or surfactant or cyclodextrin, thermodynamic from solid
[8] = inhibitor 250 µM, 200 μM ubiquinone-1, 5 mM DTT, 30 nM enzyme, RT, mean of three ± SD, 100 % = EtOH, listed as HNQ-4

T2 sequence (P0ABJ1 25-315): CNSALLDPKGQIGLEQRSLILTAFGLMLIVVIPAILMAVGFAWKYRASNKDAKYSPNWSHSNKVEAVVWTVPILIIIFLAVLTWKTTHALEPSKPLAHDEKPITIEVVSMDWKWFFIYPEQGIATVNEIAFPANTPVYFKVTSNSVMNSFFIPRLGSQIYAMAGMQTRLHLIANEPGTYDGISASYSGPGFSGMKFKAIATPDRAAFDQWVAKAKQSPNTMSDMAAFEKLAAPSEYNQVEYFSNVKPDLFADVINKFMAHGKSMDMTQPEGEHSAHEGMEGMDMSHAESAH
T2 sequence (P0ABJ3 whole entry, further chain): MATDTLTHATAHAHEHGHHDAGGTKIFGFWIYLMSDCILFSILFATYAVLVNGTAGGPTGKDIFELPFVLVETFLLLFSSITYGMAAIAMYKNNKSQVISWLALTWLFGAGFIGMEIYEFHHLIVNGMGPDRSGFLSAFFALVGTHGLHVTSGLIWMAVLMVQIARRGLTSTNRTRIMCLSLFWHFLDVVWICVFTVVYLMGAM
T2 sequence (P0ABI8 whole entry): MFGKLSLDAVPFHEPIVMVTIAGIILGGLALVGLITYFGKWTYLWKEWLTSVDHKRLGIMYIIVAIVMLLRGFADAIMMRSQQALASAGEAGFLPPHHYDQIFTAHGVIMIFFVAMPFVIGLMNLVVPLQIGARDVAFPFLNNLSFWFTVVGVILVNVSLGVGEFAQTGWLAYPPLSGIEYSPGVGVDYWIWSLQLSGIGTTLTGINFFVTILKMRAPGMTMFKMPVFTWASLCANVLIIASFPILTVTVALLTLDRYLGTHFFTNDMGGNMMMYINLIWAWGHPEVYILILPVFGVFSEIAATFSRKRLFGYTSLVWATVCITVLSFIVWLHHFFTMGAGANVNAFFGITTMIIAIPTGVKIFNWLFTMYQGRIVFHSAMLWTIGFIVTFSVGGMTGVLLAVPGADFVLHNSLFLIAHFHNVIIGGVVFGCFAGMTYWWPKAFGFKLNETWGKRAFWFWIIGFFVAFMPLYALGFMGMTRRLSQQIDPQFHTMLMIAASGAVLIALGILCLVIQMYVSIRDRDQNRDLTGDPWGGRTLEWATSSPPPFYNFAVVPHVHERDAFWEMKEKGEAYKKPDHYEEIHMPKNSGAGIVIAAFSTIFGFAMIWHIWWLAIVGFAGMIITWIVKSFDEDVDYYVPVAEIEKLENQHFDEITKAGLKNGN
T2 sequence (P0ABJ6 whole entry, further chain): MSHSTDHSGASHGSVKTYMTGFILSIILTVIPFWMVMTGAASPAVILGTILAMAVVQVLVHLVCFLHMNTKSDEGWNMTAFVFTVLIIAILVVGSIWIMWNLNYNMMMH
T1 sequence (P56100 whole entry): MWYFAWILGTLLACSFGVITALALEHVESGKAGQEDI
T1 sequence (P0ABJ9 whole entry): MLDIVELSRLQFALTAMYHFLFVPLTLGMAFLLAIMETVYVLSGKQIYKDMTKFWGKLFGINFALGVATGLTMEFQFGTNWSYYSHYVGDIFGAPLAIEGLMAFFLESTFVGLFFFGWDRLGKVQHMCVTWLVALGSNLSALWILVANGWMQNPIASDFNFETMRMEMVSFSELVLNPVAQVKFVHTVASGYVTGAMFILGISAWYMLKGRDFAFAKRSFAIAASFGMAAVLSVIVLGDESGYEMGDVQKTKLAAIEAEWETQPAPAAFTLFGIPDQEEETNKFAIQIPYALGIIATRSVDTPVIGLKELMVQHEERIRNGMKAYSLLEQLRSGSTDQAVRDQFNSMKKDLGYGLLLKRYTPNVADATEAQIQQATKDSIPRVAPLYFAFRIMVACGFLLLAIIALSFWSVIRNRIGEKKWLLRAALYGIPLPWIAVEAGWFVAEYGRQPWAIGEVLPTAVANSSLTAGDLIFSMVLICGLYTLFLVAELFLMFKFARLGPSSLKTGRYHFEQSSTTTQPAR
T1 sequence (P0ABK2 whole entry, further chain): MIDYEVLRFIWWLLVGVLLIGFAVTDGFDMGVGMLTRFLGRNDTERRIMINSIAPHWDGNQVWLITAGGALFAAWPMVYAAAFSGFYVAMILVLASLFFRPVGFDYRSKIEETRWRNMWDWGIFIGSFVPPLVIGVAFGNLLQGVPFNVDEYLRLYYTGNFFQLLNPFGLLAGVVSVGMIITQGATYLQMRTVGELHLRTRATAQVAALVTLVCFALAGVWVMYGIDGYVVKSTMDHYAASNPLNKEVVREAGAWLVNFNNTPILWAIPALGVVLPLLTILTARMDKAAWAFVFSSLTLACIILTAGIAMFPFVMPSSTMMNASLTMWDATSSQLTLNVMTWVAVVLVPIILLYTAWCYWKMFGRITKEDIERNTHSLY
T3 sequence (P0ABJ1 25-315): as the sequence (P0ABJ1 25-315) above
T3 sequence (P0ABI8 whole entry): as the sequence (P0ABI8 whole entry) above
T3 sequence (P0ABJ3 whole entry, further chain): as the sequence (P0ABJ3 whole entry, further chain) above
T3 sequence (P0ABJ6 whole entry, further chain): as the sequence (P0ABJ6 whole entry, further chain) above

## 2‐Hydroxy‐3‐[(3,5‐dihydroxybenzyl)methyl]‐1,4‐naphthoquinone [HNQ‐10]
[1]; [5]
  Residual activity for oxygen reduction, Cytochrome bd-I: 107 ± 8%
[2]; [6]
  inhibition (reduction) of cyt bo3 activity: 31%
[2]; [5]
  Residual activity for oxygen reduction, Cytochrome bo3: 69.1 ± 8%
[3]
  Solubility: 840±151 μg/mL and 2.1±0.4 mM

## 2‐Hydroxy‐3‐[(4‐phenoxybenzyl)methyl]‐1,4‐naphthoquinone [HNQ‐12]
[1]; [6]
  inhibitory effect on cyt bd-I oxidase: 56%
[1]; [5]
  Residual activity for oxygen reduction, Cytochrome bd-I: 43.8 ± 7%
[2]; [6]
  inhibition (reduction) of cyt bo3 activity: > 50%
[2]; [5]
  Residual activity for oxygen reduction, Cytochrome bo3: 13.1 ± 7%
[3]
  Solubility: 1640±94 μg/mL and 4.6±0.3 mM

## 2‐Hydroxy‐3‐[(ferreocenyl)methyl]‐1,4‐naphthoquinone [HNQ‐9]
[1]
  Residual activity for oxygen reduction, Cytochrome bd-I: 110 ± 17%
  inhibitory effect on cyt bd-I oxidase: < 30%
[2]
  Residual activity for oxygen reduction, Cytochrome bo3: 84.4 ± 17%
  inhibition (reduction) of cyt bo3 activity: < 30%
[3]
  Solubility: >8.3 mM

## CCCCCCCCCCCCCC1=C(O)C(=O)c2ccccc2C1=O [HNQ‐1, 2‐Hydroxy‐3‐tridecyl‐1,4‐naphthoquinone]
[1]; [6]
  inhibitory effect on cyt bd-I oxidase: 30%
[1]; [5]
  remaining activity at 250 µM: 70.2 ± 12%
[2]; [6]
  inhibition at 250 µM: > 50%
[2]; [5]
  remaining activity at 250 µM: 2.64 ± 12%
[3]; [7]
  solubility at 1 day: 335 µg/mL and 1020 µM

## O=C1C(O)=C(Cc2ccccc2)C(=O)c2ccccc21 [HNQ‐2, 2‐Hydroxy‐3‐methylene‐(benzyl)‐1,4‐naphthoquinone]
[1]; HNQ 250 μM
  inhibitory effect on cyt bd-I activity (in words): not influencing
[1]; [5]
  remaining activity at 250 µM: 107 ± 6%
[2]; HNQ 250 μM
  inhibitory effect on cyt bo3 activity (in words): strong inhibitory effect
[2]; [6]
  inhibition at 250 µM: > 50%
[2]; [5]
  remaining activity at 250 µM: 21.8 ± 6%
[3]; aqueous with cosolvent or surfactant or cyclodextrin, thermodynamic from solid, read-out: Solubility
  Solubility: 334 µg/mL and 1260 µM

## O=C1C(O)=C(Cc2ccncc2)C(=O)c2ccccc21 [HNQ‐3, 2‐Hydroxy‐3‐methylen‐(4‐N‐pyridyl)‐1,4‐naphthoquinone]
[1]; HNQ 250 μM
  inhibitory effect on cyt bd-I activity (in words): activity remains unaffected
[1]; [6]
  inhibitory effect on cyt bd-I oxidase: < 30%
[1]; [5]
  remaining activity at 250 µM: 110 ± 12%
[2]; HNQ 250 μM
  inhibitory effect on cyt bo3 activity (in words): activity remains unaffected
[2]; [6]
  inhibition at 250 µM: < 30%
[2]; [5]
  remaining activity at 250 µM: 99.5 ± 12%
[3]; [7]
  solubility at 1 day: 627 µg/mL and 2360 µM

## CN(C)c1ccc(CC2=C(O)C(=O)c3ccccc3C2=O)cc1 [HNQ‐4, 2‐Hydroxy‐3‐methylen‐(4‐N,N ‐dimethylanilid)‐1,4 naphthoquinone]
[1]; [6]
  inhibitory effect on cyt bd-I oxidase: < 30%
[1]; [5]
  Residual activity for oxygen reduction, Cytochrome bd-I: 15%
[1]; [8]
  Residual activity for oxygen reduction, Cytochrome bd-I: 84.2 ± 11%
[2]; [6]
  inhibition at 250 µM: < 30%
[2]; [5]
  Residual activity for oxygen reduction, Cytochrome bo3: 15%
[2]; [8]
  Residual activity for oxygen reduction, Cytochrome bo3: 84.8 ± 11%
[3]; [7]
  solubility at 1 day: 267 µg/mL and 870 µM

## O=C1C(O)=C(Cc2ccc3[nH]ncc3c2)C(=O)c2ccccc21 [HNQ‐5, 2‐Hydroxy‐3‐[(indazol‐5‐yl)methyl]‐1,4‐naphthoquinone]
[1]; [5]
  remaining activity at 250 µM: 117 ± 7%
[2]; [6]
  inhibition at 250 µM: 40%
[2]; [5]
  remaining activity at 250 µM: 59.9 ± 7%
[3]; [7]
  solubility at 1 day: 1670 µg/mL and 5500 µM

## O=C1C(O)=C(Cc2ccc3c(c2)OCO3)C(=O)c2ccccc21 [HNQ‐6, 2‐Hydroxy‐3‐[(1,2‐methylenedioxybenz‐5 yl)methyl]‐1,4‐naphthoquinone]
[1]; [5]
  remaining activity at 250 µM: 109 ± 13%
[2]; [6]
  inhibition at 250 µM: > 50%
[2]; [5]
  Residual activity for oxygen reduction, Cytochrome bo3: < 30%
  remaining activity at 250 µM: 27.3 ± 13%
[3]; [7]
  solubility at 1 day: 400 µg/mL and 780 µM

## COc1cc(CC2=C(O)C(=O)c3ccccc3C2=O)ccc1O [HNQ‐7, 2‐Hydroxy‐3‐[(4‐hydroxy‐3‐methoxyphenyl)methyl]‐1,4‐naphthoquinone]
[1]; [5]
  remaining activity at 250 µM: 106 ± 7%
[2]; [6]
  inhibition at 250 µM: > 50%
[2]; [5]
  Residual activity for oxygen reduction, Cytochrome bo3: < 50%
  remaining activity at 250 µM: 49.5 ± 7%
[3]; [7]
  solubility at 1 day: > 2680 µg/mL and > 8300 µM

## O=C1C(O)=C(Cc2c[nH]c3ncccc23)C(=O)c2ccccc21 [HNQ‐8, 2‐Hydroxy‐3‐[(1H‐pyrrolo(2,3‐b)pyridine‐3‐yl)methyl]‐1,4‐naphthoquinone]
[1]; HNQ 250 μM
  inhibitory effect on cyt bd-I activity (in words): could not show an influence
[1]; [6]
  inhibitory effect on cyt bd-I oxidase: < 30%
[1]; [5]
  remaining activity at 250 µM: 106 ± 5%
[2]; HNQ 250 μM
  inhibitory effect on cyt bo3 activity (in words): could not show an influence
[2]; [5]
  remaining activity at 250 µM: 101 ± 5%
[3]; [7]
  solubility at 1 day: > 3140 µg/mL and > 10300 µM

## O=C1C(O)=C(C(c2nc3ccccc3s2)N2CCC[C@H]2C(=O)O)C(=O)c2ccccc21 (stereo partly drawn) [HNQ‐11, 2‐Hydroxy‐3‐[(2‐thiazol(2‐3)benzyl)methyl)pyrrolidine‐2‐carboxylic acid‐1,4‐naphthoquinone]
[1]; HNQ 250 μM
  inhibitory effect on cyt bd-I activity (in words): could not show an influence
[1]; [6]
  inhibitory effect on cyt bd-I oxidase: < 30%
[1]; [5]
  remaining activity at 250 µM: 111 ± 13%
[2]; HNQ 250 μM
  inhibitory effect on cyt bo3 activity (in words): could not show an influence
[2]; [6]
  inhibition at 250 µM: < 30%
[2]; [5]
  remaining activity at 250 µM: 115 ± 13%
[3]; [7]
  solubility at 1 day: 800 µg/mL and 1840 µM

## CCCCCCCc1cc(O)c2ccccc2[n+]1[O-] [HQNO, 2‐heptyl‐4‐quinolinol 1‐oxide, reference compound]
[4]
  Ki: 700 nM
[1]; [5]
  remaining activity at 250 µM: 9.05 ± 1%
[2]; [5]
  remaining activity at 250 µM: 4.42 ± 6%
